Data from patent publication US9775353B2, “Pesticidally active heterocyclic derivatives with sulphur containing substituents” (Syngenta Participations AG, priority 2014, dated 2017).

Assays:
[1] = test system: Spodoptera littoralis (Egyptian cotton leaf worm); assay: Example B1: Activity against Spodoptera littoralis (larvicide, feeding/residual contact, preventive); assay type: in vivo; conditions: foliar, 72 h, cotton leaf discs sprayed, L1 larvae, mortality, repellent effect, feeding behaviour, growth regulation 3 days after treatment
Excerpt: Example B1: Activity Against Spodoptera littoralis (Egyptian Cotton Leaf Worm) (Larvicide, Feeding/Residual Contact Activity, Preventive) Cotton leaf discs were placed on agar in a 24-well microtiter plate and sprayed with test solutions. After drying, the leaf discs were infested with 5 L1 larvae. The samples were checked for mortality, repellent effect, feeding behaviour, and growth regulation 3 days after treatment (DAT).

[2] = test system: Diabrotica balteata (corn root worm); assay: Example B3: Activity against Diabrotica balteata (larvae L2 on maize sprouts, feeding/contact, preventative); assay type: in vivo; conditions: 120 h, maize sprouts sprayed, larval mortality and growth regulation after 5 days
Protocol: Example B3: Activity Against Diabrotica balteata (Corn Root Worm) (Larvae L2 on Maize Sprouts, Feeding/Contact, Preventative) Maize sprouts, placed on an agar layer in 24 well micro titer plates were treated with test solutions by spraying. After drying, the MTPs were infested with L2 larvae (6-10 per well). After an incubation period of 5 days, samples were checked for larval mortality and growth regulation.

[3] = test system: Tetranychus urticae (two-spotted spider mite); assay: Example B12: Activity against Tetranychus urticae; assay type: in vivo; conditions: foliar, 192 h, application rate 400 ppm, bean leaf discs sprayed, mixed population (mobile stages), 8 days after infestation
Protocol: Example B12: Activity Against Tetranychus urticae (Two-Spotted Spider Mite)
Bean leaf discs on agar in 24-well microtiter plates were sprayed with aqueous test solutions prepared from 10,000 ppm DMSO stock solutions. After drying the leaf discs were infested with a mite population of mixed ages. The samples were assessed for mortality on mixed population (mobile stages) 8 days after infestation.

[4] = test system: Euschistus heros (neotropical brown stink bug); assay: Example B10: Activity against Euschistus heros; assay type: in vivo; conditions: 120 h, soybean leaf sprayed, N-2 nymphs, mortality 5 days after infestation
Protocol: Example B10: Activity Against Euschistus heros (Neotropical Brown Stink Bug) Soybean leaf on agar in 24-well microtiter plates were sprayed with aqueous test solutions prepared from 10,000 ppm DMSO stock solutions. After drying the leaf were infested with N-2 nymphs. The samples were assessed for mortality 5 days after infestation.

[5] = test system: Plutella xylostella (diamond back moth); assay: Example B2: Activity against Plutella xylostella (larvicide, feeding/residual contact, preventive); assay type: in vivo; conditions: 120 h, artificial diet, L2 larvae, larval mortality, antifeedant, growth regulation after 5 days
Protocol: Example B2: Activity Against Plutella xylostella (Diamond Back Moth) (Larvicide, Feeding/Residual Contact Activity, Preventive) 24-well microtiter plate (MTP) with artificial diet was treated with test solutions by pipetting. After drying, the MTPs were infested with L2 larvae (10-15 per well). After an incubation period of 5 days, samples were checked for larval mortality, antifeedant and growth regulation.

[6] = test system: Myzus persicae (green peach aphid); assay: Example B8: Activity against Myzus persicae (feeding/residual contact, preventive, mixed population); assay type: in vivo; conditions: foliar, 144 h, sunflower leaf discs sprayed, mixed ages, mortality 6 DAT
Protocol: Example B8: Activity Against Myzus persicae (Green Peach Aphid) (Feeding/Residual Contact Activity, Preventive), Mixed Population Sunflower leaf discs were placed on agar in a 24-well microtiter plate and sprayed with test solutions. After drying, the leaf discs were infested with an aphid population of mixed ages. After an incubation period of 6 DAT, samples were checked for mortality and special effects (e.g. phytotoxicity).

[7] = test system: Spodoptera littoralis (Egyptian cotton leaf worm); assay: Example B7: Activity against Spodoptera littoralis (systemic activity); assay type: in vivo; conditions: 120 h, systemic via lettuce roots in agar, mortality, repellent effect, feeding behavior, growth regulation 5 days after infestation
Excerpt: Example B7: Activity Against Spodoptera littoralis (Egyptian Cotton Leaf Worm) (Systemic Activity) Test compounds were applied by pipette into 24 well plates and mixed with agar. Lettuce seeds were placed on the agar and the multi well plate is closed by another plate which contains also agar. After 7 days the roots have absorbed the compound and the lettuce has grown into the lid plate. The lettuce leaves were now cut off into the lid plate. Spodoptera eggs were pipetted through a plastic stencil on a humid gel blotting paper and the plate closed with it. The samples are checked for mortality, repellent effect, feeding behavior, and growth regulation 5 days after infestation.

[8] = test system: Bemisia tabaci (cotton white fly); assay: Example B5: Activity against Bemisia tabaci (adulticide contact activity, preventative); assay type: in vivo; conditions: foliar, 168 h, cotton leaf discs sprayed, adult white flies, mortality 7 DAT
Protocol: Example B5: Activity Against Bemisia tabaci (Cotton White Fly) (Adulticide Contact Activity, Preventative), Adult Cotton leaf discs were placed on agar in a 24-well microtiter plate and sprayed with test solutions. After drying, the leaf discs were infested with adult white flies. After an incubation period of 7 DAT, samples were checked for mortality and special effects (e.g. phytotoxicity).

[9] = test system: Thrips tabaci (onion thrips); assay: Example B11: Activity against Thrips tabaci; assay type: in vivo; conditions: foliar, 144 h, application rate 400 ppm, sunflower leaf discs sprayed, mixed ages, 6 days after infestation
Protocol: Example B11: Activity Against Thrips tabaci (Onion Thrips)
Sunflower leaf discs were placed on agar in 24-well microtiter plates and sprayed with aqueous test solutions prepared from 10,000 ppm DMSO stock solutions. After drying the leaf discs were infested with a thrips population of mixed ages. The samples were assessed for mortality 6 days after infestation.

Compound | melting point [°C] | pest or weed control at 400 ppm [1] [%] | pest or weed control at 400 ppm [2] [%] | mortality at 400 ppm [3] [%] | pest or weed control at 400 ppm [4] [%] | pest or weed control at 400 ppm [5] [%] | pest or weed control at 400 ppm [6] [%] | pest or weed control at 12.5 ppm [7] [%] | pest or weed control at 400 ppm [8] [%] | mortality at 400 ppm [9] [%]
CCS(=O)(=O)c1cc(-c2ccccc2C(F)(F)F)cnc1-c1nc2cc(C(F)(F)F)ncc2n1C [Compound P4] | – | > 80 | > 80 | ≥ 80 | – | – | – | – | – | –
CCS(=O)(=O)c1cc(-c2ccc(F)cc2F)cnc1-c1nc2cc(C(F)(F)F)ncc2n1C [Compound P41] | 223 to 225 | – | – | – | – | – | – | – | – | –
CCS(=O)(=O)c1cc(-c2ccc(Cl)cc2)cnc1-c1nc2cc(C(F)(F)F)ncc2n1C [Compound P1, 2-[5-(4-chlorophenyl)-3-ethylsulfonyl-2-pyridyl]-3-methyl-6-(trifluoromethyl)imidazo[4,5-c]pyridine] | – | > 80 | > 80 | – | > 80 | > 80 | > 80 | ≥ 80 | > 80 | –
CCS(=O)(=O)c1cc(-c2cc(F)cc(F)c2)cnc1-c1nc2cc(C(F)(F)F)ncc2n1C [Compound P7] | – | > 80 | > 80 | – | > 80 | > 80 | > 80 | ≥ 80 | > 80 | ≥ 80
CCS(=O)(=O)c1cc(-c2ccc(C#N)cc2)cnc1-c1nc2cc(C(F)(F)F)ncc2n1C [Compound P36] | – | > 80 | > 80 | ≥ 80 | > 80 | > 80 | > 80 | ≥ 80 | > 80 | ≥ 80
CCS(=O)(=O)c1cc(-c2ccc(F)cc2)cnc1-c1nc2cc(C(F)(F)F)ncc2n1C [Compound P13] | – | > 80 | > 80 | – | > 80 | > 80 | > 80 | ≥ 80 | > 80 | ≥ 80

Further lines, with some results ahead:

melting point [°C] | Compound | pest or weed control at 400 ppm [1] [%] | pest or weed control at 400 ppm [2] [%] | mortality at 400 ppm [3] [%] | pest or weed control at 400 ppm [4] [%] | pest or weed control at 400 ppm [5] [%] | pest or weed control at 400 ppm [6] [%] | pest or weed control at 12.5 ppm [7] [%] | pest or weed control at 400 ppm [8] [%] | mortality at 400 ppm [9] [%]
170 to 172 | CCS(=O)(=O)c1cc(-c2ccccc2)cnc1-c1nc2cc(C(F)(F)F)ncc2n1C [Compound P39] | – | – | – | – | – | – | – | – | –
181 to 183 | CCS(=O)(=O)c1cc(-c2ccc(OC(F)(F)F)cc2)cnc1-c1nc2cc(C(F)(F)F)ncc2n1C [Compound P45] | – | – | – | – | – | – | – | – | –
235 to 237 | CCS(=O)(=O)c1cc(-c2cc(Cl)c(F)c(Cl)c2)cnc1-c1nc2cc(C(F)(F)F)ncc2n1C [Compound P43] | – | – | – | – | – | – | – | – | –
270 to 272 | CCS(=O)(=O)c1cc(-c2cc(Cl)cc(Cl)c2)cnc1-c1nc2cc(C(F)(F)F)ncc2n1C [Compound P42] | – | – | – | – | – | – | – | – | –
257 to 259 | CCS(=O)(=O)c1cc(-c2cccc(C#N)c2)cnc1-c1nc2cc(C(F)(F)F)ncc2n1C [Compound P44] | – | – | – | – | – | – | – | – | –
